Key:
MDA-MB-231 = test: Cell viability assay (CCK-8), MDA-MB-231; type: cell-based, human; conditions: Homo sapiens; for inhibition at 5 µg/mL: MDA-MB-231; for IC50: MDA-MB-231, 72 h, TNBC cell line, CCK-8, 72 h, 0.156 to 40 μM
Procedure: (§1) Four human TNBC cell lines (MDA-MB-231, MDA-MB-453, SUM-159, and BT-20), a non-TNBC breast cancer cell line (MCF-7) and a normal mammary epithelial cell line (MCF-10A) were cultured with DMEM (phenol free) supplemented with 2.5% CS-FBS and 1% L-Glu. 1.2 × 10^3 of cells were seeded into 384-well microplates and maintained for 24 h in an incubator at 37 °C in a 5% CO2, saturated humidified atmosphere. […] […] Then CCK-8 solution was added into cells and incubated for another 4 h. Absorbance was measured with a Microplate Reader at 450/600 nm. The IC50 values of the compounds on TNBC cell lines were derived using GraphPad Prism 5.0 (GraphPad Software, Inc., La Jolla, CA, USA).

SUM-159 = test: Cell viability assay (CCK-8), SUM-159; type: cell-based, human; conditions: Homo sapiens; for inhibition at 5 µg/mL: SUM159; for IC50: SUM159, 72 h, TNBC cell line, CCK-8, 72 h, 0.156 to 40 μM
Procedure: as §1

MCF-7 = test: Cell viability assay (CCK-8), MCF-7; type: cell-based, human; conditions: Homo sapiens; for inhibition at 5 µg/mL: MCF7; for IC50: MCF7, 72 h, non-TNBC breast cancer cell line, CCK-8, 72 h
Procedure: as §1

BT-20 = test: Cell viability assay (CCK-8), BT-20; type: cell-based; conditions: Homo sapiens, TNBC cell line, CCK-8, 72 h, 0.156 to 40 μM
Procedure: (§2) Four human TNBC cell lines (MDA-MB-231, MDA-MB-453, SUM-159, and BT-20), a non-TNBC breast cancer cell line (MCF-7) and a normal mammary epithelial cell line (MCF-10A) were cultured with DMEM (phenol free) supplemented with 2.5% CS-FBS and 1% L-Glu. 1.2 × 10^3 of cells were seeded into 384-well microplates and maintained for 24 h in an incubator at 37 °C in a 5% CO2, saturated humidified atmosphere. Different compounds were added into cells with 9 concentrations from 0.156 to 40 μM for 72 h. […] Then CCK-8 solution was added into cells and incubated for another 4 h. Absorbance was measured with a Microplate Reader at 450/600 nm. The IC50 values of the compounds on TNBC cell lines were derived using GraphPad Prism 5.0 (GraphPad Software, Inc., La Jolla, CA, USA).

MDA-MB-453 = test: Cell viability assay (CCK-8), MDA-MB-453; type: cell-based; conditions: Homo sapiens, TNBC cell line, CCK-8, 72 h, 0.156 to 40 μM
Procedure: as §2

Question: What does the source list for COC(=O)c1c(C)oc2c1cc(NS(=O)(=O)c1ccc(C(C)C)cc1)c1ccccc12 [Compound 3-4]?
Answer: inhibition at 5 µg/mL (MDA-MB-231): 37.8%; inhibition at 5 µg/mL (SUM-159): -0.319%; inhibition at 5 µg/mL (MCF-7): 14.2%

Question: For CC(=O)Oc1c(SCC(=O)O)cc(NS(=O)(=O)c2ccc(F)cc2)c2ccccc12 [Compound 2-3], which IC50 (BT-20) is on record?
Answer: Its IC50 is over 40 µM.

Question: And the IC50 (MDA-MB-453)?
Answer: Its IC50 is 8.59 µM.

Question: What about the IC50 (MDA-MB-231) of the same compound?
Answer: The IC50 was 7.99 µM.

Question: What about the IC50 (SUM-159) of the same compound?
Answer: Its IC50 is over 40 µM.

Question: And the IC50 (MCF-7)?
Answer: The IC50 was over 40 µM.

Question: CC(C)c1ccc(S(=O)(=O)Nc2cc(SCC(=O)O)c(O)c3ccccc23)cc1 [Compound 2-7] was tested. Which IC50 (BT-20) did it give?
Answer: The IC50 was over 40 µM.

Question: And the IC50 (MDA-MB-453)?
Answer: The IC50 was 3.65 µM.

Question: And the IC50 (MDA-MB-231)?
Answer: The IC50 was 3.95 µM.

Question: And the IC50 (SUM-159)?
Answer: The IC50 was over 40 µM.

Question: What about the IC50 (MCF-7) of the same compound?
Answer: The IC50 was over 40 µM.

Question: How did the inhibition at 5 µg/mL (MDA-MB-231) turn out when Cc1oc2c(cc(NS(=O)(=O)c3ccccc3)c3ccccc32)c1C(=O)OCc1ccccc1 [Compound 3-26] was run?
Answer: Its inhibition at 5 µg/mL is 51%.

Question: What about the inhibition at 5 µg/mL (SUM-159) of the same compound?
Answer: The inhibition at 5 µg/mL was 1.58%.

Question: What about the inhibition at 5 µg/mL (MCF-7) of the same compound?
Answer: The inhibition at 5 µg/mL was 25.6%.

Question: For COC(=O)c1c(C)oc2c1cc(NS(=O)(=O)c1c(C)cc(C)cc1C)c1ccccc12 [Compound 3-38], which inhibition at 5 µg/mL (MDA-MB-231) is on record?
Answer: The inhibition at 5 µg/mL was 50.6%.

Question: And the inhibition at 5 µg/mL (SUM-159)?
Answer: Its inhibition at 5 µg/mL is 1.35%.

Question: What about the inhibition at 5 µg/mL (MCF-7) of the same compound?
Answer: Its inhibition at 5 µg/mL is 14.8%.

Question: Which inhibition at 5 µg/mL (MDA-MB-231) does the source give for Cc1cc(F)ccc1S(=O)(=O)Nc1cc2c(C(=O)O)c(C)oc2c2ccccc12 [Compound 3-19] here?
Answer: The inhibition at 5 µg/mL was 19.3%.

Question: What about the inhibition at 5 µg/mL (SUM-159) of the same compound?
Answer: Its inhibition at 5 µg/mL is 0.38%.

Question: And the inhibition at 5 µg/mL (MCF-7)?
Answer: The inhibition at 5 µg/mL was 16.3%.

Question: What does the source list for CCOC(=O)c1c(C)oc2c1cc(NS(=O)(=O)c1ccc(C(=O)O)cc1)c1ccccc12 [Compound 3-13]?
Answer: inhibition at 5 µg/mL (MDA-MB-231): 19.6%; inhibition at 5 µg/mL (SUM-159): -0.635%; inhibition at 5 µg/mL (MCF-7): 5.14%

Question: With CCCc1oc2c(cc(NS(=O)(=O)c3ccc(OC)cc3)c3ccccc32)c1C(=O)OCC [Compound 3-28] as the compound, how does the inhibition at 5 µg/mL (MDA-MB-231) read?
Answer: Its inhibition at 5 µg/mL is 61.9%.

Question: What about the IC50 (MDA-MB-231) of the same compound?
Answer: The IC50 was over 40 µM.

Question: And the inhibition at 5 µg/mL (SUM-159)?
Answer: Its inhibition at 5 µg/mL is 46%.

Question: What about the IC50 (SUM-159) of the same compound?
Answer: Its IC50 is 14.4 µM.

Question: What about the inhibition at 5 µg/mL (MCF-7) of the same compound?
Answer: Its inhibition at 5 µg/mL is 33.4%.

Question: COC(=O)c1c(C)oc2c1cc(NS(=O)(=O)c1cccc3cccnc13)c1ccccc12 [Compound 3-27] was tested. Which inhibition at 5 µg/mL (MDA-MB-231) did it give?
Answer: Its inhibition at 5 µg/mL is 48.2%.

Question: What about the inhibition at 5 µg/mL (SUM-159) of the same compound?
Answer: The inhibition at 5 µg/mL was 10.2%.

Question: What about the inhibition at 5 µg/mL (MCF-7) of the same compound?
Answer: The inhibition at 5 µg/mL was 35.5%.

Question: How did the inhibition at 5 µg/mL (MDA-MB-231) turn out when COC(=O)c1c(C)oc2c1cc(NS(=O)(=O)c1ccc3ccccc3c1)c1ccccc12 [Compound 3-7] was run?
Answer: The inhibition at 5 µg/mL was 0.431%.

Question: What about the inhibition at 5 µg/mL (SUM-159) of the same compound?
Answer: Its inhibition at 5 µg/mL is 0.085%.

Question: What about the inhibition at 5 µg/mL (MCF-7) of the same compound?
Answer: Its inhibition at 5 µg/mL is -4.73%.

Question: What does the source list for CCOC(=O)c1c(C)oc2c1cc(NS(=O)(=O)c1ccc(C)cc1)c1ccccc12 [Compound 3-36]?
Answer: inhibition at 5 µg/mL (MDA-MB-231): 16.8%; inhibition at 5 µg/mL (SUM-159): -0.123%; inhibition at 5 µg/mL (MCF-7): -4.38%

Question: Which inhibition at 5 µg/mL (MDA-MB-231) does the source give for CCc1ccc(S(=O)(=O)Nc2cc3c(C(=O)O)c(C)oc3c3ccccc23)cc1 [Compound 3-8] here?
Answer: Its inhibition at 5 µg/mL is -1.13%.

Question: And the inhibition at 5 µg/mL (SUM-159)?
Answer: Its inhibition at 5 µg/mL is 0.221%.

Question: What about the inhibition at 5 µg/mL (MCF-7) of the same compound?
Answer: The inhibition at 5 µg/mL was -6.71%.

Question: Which results are given for CCCCCOC(=O)c1c(C)oc2c1cc(NS(=O)(=O)c1ccc(OC)cc1)c1ccccc12 [Compound 3-25]?
Answer: inhibition at 5 µg/mL (MDA-MB-231): 39.5%; inhibition at 5 µg/mL (SUM-159): 61.9%; inhibition at 5 µg/mL (MCF-7): 48.3%

Question: How did the inhibition at 5 µg/mL (MDA-MB-231) turn out when COC(=O)c1c(C)oc2c1cc(NS(=O)(=O)c1ccc(F)cc1C)c1ccccc12 [Compound 3-18] was run?
Answer: The inhibition at 5 µg/mL was 59.4%.

Question: What about the IC50 (MDA-MB-231) of the same compound?
Answer: The IC50 was 5.2 µM.

Question: What about the inhibition at 5 µg/mL (SUM-159) of the same compound?
Answer: The inhibition at 5 µg/mL was 51.4%.

Question: And the IC50 (SUM-159)?
Answer: Its IC50 is 24.2 µM.

Question: And the inhibition at 5 µg/mL (MCF-7)?
Answer: The inhibition at 5 µg/mL was 33.2%.

Question: For CCCc1oc2c(cc(NS(=O)(=O)c3ccc(C(=O)O)cc3)c3ccccc32)c1C(=O)OCC [Compound 3-40], which inhibition at 5 µg/mL (MDA-MB-231) is on record?
Answer: Its inhibition at 5 µg/mL is 12.5%.

Question: What about the inhibition at 5 µg/mL (SUM-159) of the same compound?
Answer: The inhibition at 5 µg/mL was 0%.

Question: What about the inhibition at 5 µg/mL (MCF-7) of the same compound?
Answer: Its inhibition at 5 µg/mL is 2.52%.

Question: How did the inhibition at 5 µg/mL (MDA-MB-231) turn out when COC(=O)c1c(C)oc2c1cc(NS(=O)(=O)c1ccc(F)cc1)c1ccccc12 [Compound 3-10] was run?
Answer: The inhibition at 5 µg/mL was 64.5%.

Question: What about the inhibition at 5 µg/mL (SUM-159) of the same compound?
Answer: The inhibition at 5 µg/mL was 35.5%.

Question: What about the inhibition at 5 µg/mL (MCF-7) of the same compound?
Answer: The inhibition at 5 µg/mL was 34.5%.

Question: With CCOC(=O)c1c(C)oc2c1cc(NS(=O)(=O)c1ccc(CC)cc1)c1ccccc12 [Compound 3-11] as the compound, how does the inhibition at 5 µg/mL (MDA-MB-231) read?
Answer: Its inhibition at 5 µg/mL is 41.1%.

Question: What about the inhibition at 5 µg/mL (SUM-159) of the same compound?
Answer: Its inhibition at 5 µg/mL is 0.175%.

Question: And the inhibition at 5 µg/mL (MCF-7)?
Answer: Its inhibition at 5 µg/mL is 13%.

Question: Which results are given for CCOC(=O)c1c(C)oc2c1cc(NS(=O)(=O)c1ccc(C)cc1C)c1ccccc12 [Compound 3-16]?
Answer: inhibition at 5 µg/mL (MDA-MB-231): 48.2%; inhibition at 5 µg/mL (SUM-159): 0.732%; inhibition at 5 µg/mL (MCF-7): 43.4%

Question: What does the source list for COc1ccc(-c2oc3c(CCC(C)(C)O)c(O)cc(O)c3c(=O)c2O)cc1 [IC-163, reference compound]?
Answer: IC50 (BT-20): > 40 µM; IC50 (MDA-MB-453): > 40 µM; IC50 (MDA-MB-231): > 40 µM; IC50 (SUM-159): > 40 µM; IC50 (MCF-7): > 40 µM

Question: For COC(=O)c1c(C)oc2c1cc(NS(=O)(=O)c1ccc(Cl)cc1)c1ccccc12 [Compound 3-33], which inhibition at 5 µg/mL (MDA-MB-231) is on record?
Answer: The inhibition at 5 µg/mL was 32.8%.

Question: And the inhibition at 5 µg/mL (SUM-159)?
Answer: Its inhibition at 5 µg/mL is -0.507%.

Question: And the inhibition at 5 µg/mL (MCF-7)?
Answer: Its inhibition at 5 µg/mL is 2.82%.

From article PMC6017705, “Discovery of N-(Naphtho[1,2-b]Furan-5-Yl) Benzenesulfonamides as Novel Selective Inhibitors of Triple-Negative Breast Cancer (TNBC)” (Molecules : A Journal of Synthetic Chemistry and Natural …, 2018)
